Results as given in patent US20260028374A1, “EPIDERMAL GROWTH FACTOR RECEPTOR INHIBITORS” (FILAMON LTD, priority 2023, published 2026).
Square brackets hold non-standard residues; d marks the D form. Peptide text beside a SMILES is read from it. 2Nal = N[C@@H](Cc1ccc2ccccc2c1)C(=O)O

Experiments:
PC-3 cells = experiment: MTS cell viability assay; format: cell-based; conditions: PC-3, MTS, 72 hours, 0-250 μM
Procedure: FIG. 2. (a) Structure of FLM-c2 derivatives D1 (top), D2 (middle) and D3 (bottom) (b) Molecular modelling of compounds D1, D2 and D3. Representation of the molecules are as described in FIG. 1. (c) MTS assay of PC-3 cells treated with FLM-c2, D-1 D3 (0.1-250 μM).
To quantify cell toxicity of FLM-c2, the MTS (3-(4,5-dimethylthiazol-2-yl)-5-(3-carboxymethoxyphenyl)-2-(4-sulfophenyl)-2H-tetrazolium) assay was performed using CellTiter 96@AQueous One Solution Cell Proliferation Assay reagent (Promega, Madison, WI), as per the manufacturer's instructions. PC-3 cells were seeded at 2000 cells per well on a 96 well plate overnight at 37° C. and 5% C02. Cells were then treated with 0-250 μM with each of FLM-c2, D1, D2 and D3, which was incubated for 72 hours at 37° C. and 5% C02. Medium was replaced with 100 μL/well of phenol red-free MEM (Sigma-Aldrich) and 20 μL/well of the MTS reagent was added. After incubation for 3 hours in 37° C. with 5% C02, the absorbance was measured at 490 nm with Spectramax M5e.

EGF-EGFR interaction = molecular target: T1, EGF-EGFR interaction (Homo sapiens, UniProt P00533); experiment: EGF-EGFR AlphaLISA assay; format: binding; conditions: in vitro AlphaLISA
T1 construct: purchased Perkin-Elmer
Procedure: FIG. 2. […] Representation of the molecules are as described in FIG. 1.
The AlphaLISA EGF/EGFR binding kit (Perkin-Elmer) was used as per the manufacturer's instructions. […] Finally, 5 μL of EGFR acceptor beads were added, and fluorescence imaged on a plate reader.

[1] = molecular target: T2, hGIIA interaction with EGFR (Homo sapiens, UniProt P00533); experiment: Co-immunoprecipitation of hGIIA and EGFR in PC-3 cells; format: cell-based; conditions: PC-3, hGIIA 2 μg/mL, FLM-c2 100 μM
T2 construct: endogenous in cells; host or cells: PC-3
Procedure: FIG. 1. (a), Amino acid sequence of human group IIA-secreted phospholipase A2 (hGIIA) predicted to interact with EGF-binding site of EGFR shown in magenta; helices shown as red braids; β strands as green arrows; and loops as blue lines. Sequence from which FLM-c2 is derived shown with orange box. (b), Prostate cancer cell line PC-3 incubated with hGIIA (2 μg/mL) and FLM-c2 (100 μM) for 3 hours before lysing and pulldown with hGIIA antibody followed by detection with EGFR antibody. (c), molecular modelling of EGF (pink ribbon) and (d), FLM-c2 analogue (cyclo-(Phe-Leu-Ser-Phe-Arg)) (stick diagram. Yellow, carbon; blue, nitrogen; red oxygen) binding to EGFR. EGFR is depicted as a surface model (red, basic surfaces; blue, acidic surfaces, yellow; cysteine residues; green, hydrophobic surfaces; white neutral surfaces). (e) PC-3 cells co-transfected with Rab5-mCherry (red), EGFR-GFP (green) and treated with hGIIA/AF647 (purple) as well as c2 at 1 μM and 10 μM for 24 hours. EGF (25 ng/mL) and Lapatinib (5 μM) were used as control treatments. N=3, >5 cells per replicate.
PC-3 cells were seeded in a 6-well plate at 300,000 cells/well and grown overnight at 37° C. and 5% CO2. Cells were then incubated with 2 μg/mL hGIIA with and without FLM-c2 (100 μM) for two hours. After incubation, cells were washed three times with 10 mL ice cold PBS for 2 min. […]

[2] = tested on: EGFR, Rab5 and hGIIA localisation; experiment: Live cell imaging of EGFR, Rab5 and hGIIA localisation in PC-3 cells; format: cell-based; conditions: PC-3, c2 10 μM with hGIIA/AF647, 24 hours
Procedure: The effect of c2 on EGFR, Rab5 and hGIIA localisation was also examined in PC-3 cells. PC-3 cells were co-transfected with EGFR-EGFP and Rab5-mCherry before treatment with hGIIA/AF647 and c2 at 0, 1 and 10 μM.

EGFR = EGFR (Homo sapiens, UniProt P00533); experiment: Western blot of EGFR in PC-3 cells; format: cell-based; conditions: PC-3, 100 μM, 24 hours
Procedure: FIG. 3. (a) PC-3 cells treated with DMSO (0.5%), FLM-c2 (100 μM), D1-D3 (100 μM) or EGF (50 ng/mL) for 24 h, detected for EGFR and GAPDH. (b) PC-3 cells tagged with EGFR-EGFP and lysotracker treated with DMSO (0.5%) or D3 (100 μM) for 24 h.
FIG. 4. (a) PC-3 cells were treated with D1-D3 (100 μM) for 3, 16, 24 and 48 hours. EGFR and ß-Actin ratio was detected. (b) the EGFR:ß-Actin ratio was plotted after normalising to DMSO control.
PC-3 cells were seeded in a 6 well plate at 200,000 cells/well overnight at 37° C. and 5% C02. Media was removed, cells were washed with PBS and serum free media added 1 hour before treatment with FLM-c2, D1-D3 for 3-48 hours. After treatment, media was removed and cells were washed with ice cold PBS. PBS was removed and cells were scraped into 1 mL of PBS containing 5.3 mM of EDTA and centrifuged at 2500 g for 2 min. PBS was removed and cells were lysed with lysis buffer (PBS, 0.1% NP-40, 0.1% sodium deoxycholate, 150 mM NaCl, 1 mM EDTA, 1 mM dithiothreitol, 1 mM phenylmethylsulfonyl fluoride, and IX protease inhibitor cocktail)^17 and mixed with RM-2L Intelli-mixer for 30 min at 4° C. Lysates were then centrifuged at 12,000 g for 20 min at 4° C. 20 μg of lysate was added to 4 μL of Bolt reducing agent and 10 μL of reducing buffer (both reagents supplied by Thermo Fisher Scientific) for a final volume of 40 μL with PBS. Samples were boiled and run on a gel, transferred to a membrane and blocked for 1 hour in 5% skim milk at 25° C. Membrane was probed with either EGFR antibody #2232, GAPDH antibody #2118 or BS-Actin antibody #4970 (Cell Signalling) at 1:1000 in 5% skim milk/TBST overnight at 4° C. Each membrane was washed three times with 50 mL TBST for 5 mins and then incubated with the relevant secondary α-rabbit IgG-HRP-linked antibody (1:1000), for 1 hour at room temperature. The membrane was washed as described above and imaged with the Licor Odyssey.

[3] = tested on: hGIIA-driven eicosanoid production; conditions: prostate cancer cells; Mann et al. in review; cited from earlier work

T1 sequence (P00533 25-645 limits assumed): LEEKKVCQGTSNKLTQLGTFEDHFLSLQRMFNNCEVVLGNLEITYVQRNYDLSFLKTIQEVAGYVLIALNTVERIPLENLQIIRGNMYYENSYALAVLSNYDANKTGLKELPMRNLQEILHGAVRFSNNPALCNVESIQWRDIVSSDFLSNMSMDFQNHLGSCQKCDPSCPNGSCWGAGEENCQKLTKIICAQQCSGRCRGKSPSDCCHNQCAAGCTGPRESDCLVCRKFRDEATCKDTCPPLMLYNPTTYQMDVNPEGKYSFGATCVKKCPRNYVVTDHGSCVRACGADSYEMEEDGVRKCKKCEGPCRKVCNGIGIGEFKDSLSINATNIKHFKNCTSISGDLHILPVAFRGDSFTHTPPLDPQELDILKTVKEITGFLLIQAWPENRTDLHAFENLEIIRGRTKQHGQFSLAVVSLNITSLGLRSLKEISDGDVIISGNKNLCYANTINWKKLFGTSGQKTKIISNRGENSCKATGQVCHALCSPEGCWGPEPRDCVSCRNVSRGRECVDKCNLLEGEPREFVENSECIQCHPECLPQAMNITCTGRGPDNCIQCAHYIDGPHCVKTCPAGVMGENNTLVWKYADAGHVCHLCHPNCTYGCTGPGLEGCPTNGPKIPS
Chain of EGFR (P00533 25-1210): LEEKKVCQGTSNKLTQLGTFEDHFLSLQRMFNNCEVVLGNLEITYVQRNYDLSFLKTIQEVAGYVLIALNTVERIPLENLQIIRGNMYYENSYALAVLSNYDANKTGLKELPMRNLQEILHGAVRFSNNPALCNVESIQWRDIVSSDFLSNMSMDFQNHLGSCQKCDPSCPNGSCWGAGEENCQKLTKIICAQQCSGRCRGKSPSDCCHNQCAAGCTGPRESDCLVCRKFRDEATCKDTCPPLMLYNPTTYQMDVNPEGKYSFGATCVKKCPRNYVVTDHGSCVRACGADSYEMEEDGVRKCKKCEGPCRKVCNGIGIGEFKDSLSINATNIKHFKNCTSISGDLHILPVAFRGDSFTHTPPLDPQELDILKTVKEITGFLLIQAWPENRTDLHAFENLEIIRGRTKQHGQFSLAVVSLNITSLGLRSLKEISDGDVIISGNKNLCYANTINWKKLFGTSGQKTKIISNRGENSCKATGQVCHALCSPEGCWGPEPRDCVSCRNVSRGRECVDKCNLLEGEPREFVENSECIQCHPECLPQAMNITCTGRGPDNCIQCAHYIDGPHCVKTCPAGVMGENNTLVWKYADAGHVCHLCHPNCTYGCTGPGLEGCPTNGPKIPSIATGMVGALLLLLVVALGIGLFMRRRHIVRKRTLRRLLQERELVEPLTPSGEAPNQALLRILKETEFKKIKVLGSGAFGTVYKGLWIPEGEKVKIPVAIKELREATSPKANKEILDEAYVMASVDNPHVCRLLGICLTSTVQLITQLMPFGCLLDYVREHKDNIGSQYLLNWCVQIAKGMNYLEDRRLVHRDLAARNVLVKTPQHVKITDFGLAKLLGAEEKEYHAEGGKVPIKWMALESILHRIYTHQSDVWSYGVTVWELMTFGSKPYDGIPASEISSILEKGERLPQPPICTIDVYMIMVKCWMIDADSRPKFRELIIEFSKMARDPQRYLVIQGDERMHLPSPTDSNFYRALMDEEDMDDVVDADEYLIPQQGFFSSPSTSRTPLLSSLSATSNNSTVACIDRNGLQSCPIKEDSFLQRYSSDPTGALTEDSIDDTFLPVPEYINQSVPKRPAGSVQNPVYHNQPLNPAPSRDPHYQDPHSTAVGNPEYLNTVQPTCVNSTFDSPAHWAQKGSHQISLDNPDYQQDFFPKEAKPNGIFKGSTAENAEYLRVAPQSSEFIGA
T2 sequence (P00533 25-1210): as above

## CC(C)C[C@@H]1NC(=O)[C@H](Cc2ccc3ccccc3c2)NC(=O)[C@H](CCCNC(=N)N)NC(=O)[C@H](Cc2ccc3ccccc3c2)NC(=O)[C@H](CO)NC1=O [FLM-c2, cyclo-((2-Nal)-Leu-Ser-(2-Nal)-Arg)] (cyclo([2Nal]LS[2Nal]R))
PC-3 cells
  IC50: 211 µM
EGF-EGFR interaction
  potency order in inhibiting the EGF/EGFR interaction: FLM-c2>D1>D2>D3
EGF-EGFR interaction; 0.01-200 μM
  inhibition of the EGF/EGFR interaction: inhibited the EGF/EGFR interaction at high concentrations
[1]
  inhibition of hGIIA-EGFR interaction (EGFR signal after pulldown with hGIIA antibody): able to inhibit this interaction
[2]
  effect on EGFR, Rab5 and hGIIA localisation: increased hGIIA/AF647 and Rab5-mCherry punctate size, as well as circularisation of EGFR-GFP expression
EGFR
  EGFR degradation by western blot: did not
[3]
  inhibition of hGIIA-driven eicosanoid production: known to inhibit hGIIA-driven eicosanoid production
